From the NIST ThermoML archive (doi:10.1021/je049789+)
± gives the expanded uncertainty stated by the source.

Conditions: Liquid, Closed cell (Static) method

Row | Structure (SMILES) | vapor or sublimation pressure (258.15 K) | vapor or sublimation pressure (273.15 K) | vapor or sublimation pressure (293.15 K)
1 | COC [dimethyl ether] | 152.9 ± 2.1 kPa | 266.8 ± 2.2 kPa | 509.3 ± 2.7 kPa
2 | FCF [difluoromethane] | 488.1 ± 2.6 kPa | 814 ± 3.3 kPa | 1474.6 ± 4.8 kPa
